# Patent US7323541B2, “Polypeptide DNA thereof and use of the same” (Takeda Pharmaceutical Company Limited, priority 2001, dated 2008)
# Substitutions are numbered along the chain they refer to. Where no end group is shown, it is not given here.
# How the values were obtained:
# [1] = biological target: T1, TGR23-2 expressing CHO cells (Homo sapiens, UniProt Q6W5P4, N107I/Q344R); assay: Enhancing activity of intracellular cAMP production; format: cell-based; settings: with forskolin
# T1 construct: the clones having the cDNA of TGR23-2, which is contained in pTB2174, were selected; expressed in transfected cells; host or cells: hamster CHO/dhfr- cells, vector pAKKO-111H (pAKKO-TGR23-2)
# T1 sequence (Q6W5P4 1-371 N107I/Q344R): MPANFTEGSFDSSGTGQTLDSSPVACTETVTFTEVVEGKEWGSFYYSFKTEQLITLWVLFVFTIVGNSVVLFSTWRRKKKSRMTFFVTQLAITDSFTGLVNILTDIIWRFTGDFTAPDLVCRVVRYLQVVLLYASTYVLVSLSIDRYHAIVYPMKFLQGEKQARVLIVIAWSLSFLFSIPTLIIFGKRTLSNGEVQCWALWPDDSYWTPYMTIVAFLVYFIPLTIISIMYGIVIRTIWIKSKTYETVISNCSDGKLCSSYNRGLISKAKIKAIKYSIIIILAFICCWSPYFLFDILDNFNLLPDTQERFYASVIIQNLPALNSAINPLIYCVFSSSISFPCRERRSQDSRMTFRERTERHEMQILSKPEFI
# Protocol: The CHO/TGR23-2 cells prepared in Example 1 and selected in Example 2 were plated on 24-well plate at 7×10^4 cells/well and cultured for 48 hours. The cells were washed with αMEM medium (pH7.5) containing 0.2 mM 3-isobutyl-methylxanthine, 0.05% BSA and 20 mM HEPES (hereafter, αMEM medium (pH7.5) containing 0.2 mM 3-isobutyl-methylxanthine, 0.05% BSA and 20 mM HEPES may be referred to as a reaction buffer). Subsequently, 0.5 ml of the reaction buffer was added, and the solution was incubated for 30 minutes in the incubator. The reaction buffer was removed and 0.25 ml of the reaction buffer was freshly added to the cells. Then, the cells were admixed with a sample and 0.25 ml of the reaction buffer containing 2 μM forskoline, and incubated at 37° C. for 30 minutes. Intracellular cAMP was extracted by removing the reaction solution and adding 0.5 ml of the solution for cell lysis attached with cAMP EIA Kit (Applied Biosystems). The cAMP level in the extract was quantified with the same kit. Based on this measured value, a calculation was made using the following formula, and the enhancing/inhibiting activity for cAMP production was represented by % of control. The activity of the sample-adding group was calculated using a control value configured in each plate. % of control=(X−C)/(T−C)×100
# X: The cAMP level in the sample-adding group
# T: The means of the cAMP level in 3 wells of positive control (no sample, with stimulus of forskoline)
# C: The means of the cAMP level in 3 wells of negative control (no sample, without stimulus of forskoline)
# In addition, for the same sample, in accordance with the method shown in Example 4, an arachidonic acid metabolite releasing activity was assayed.
# Four microlitters each of the above-mentioned HPLC active fractions of rat whole brain extracts (Fraction numbers 18, 20 and 22 to 23) was added to 100 μl of 0.2 M ammonium acetate and incubated at 37° C. for 2 hours with 3 μg of Pronase. Subsequently, Pronase added, was inactivated by heating in boiling water for 10 minutes. To this solution, one ml of distilled water containing 0.05 mg of BSA and 0.05 mg of CHAPS was added. Further, it was lyophilized. For the lyophilized sample, enhancing activity for intracellular cAMP production was assayed by adding to TGR23-2 expressing CHO cells according to the method shown in Example 3.
# Human TGR23-2 ligand (1-20) prepared by the method described in Example 17 was administered to TGR23-1 expressing CHO cells and TGR23-2 expressing CHO cells at a variety of concentrations according to the method described in Example 3, and the enhancing activity of intracellular cAMP production was determined.
# Further, human TGR23-2 ligand (1-20) and rat TGR23-2 ligand (1-18) prepared by the method described in Example 19 were administered to TGR23-1 expressing CHO cells and TGR23-2 expressing CHO cells at a variety of concentrations, and the same assay as described above was carried out under the condition of no forskolin. A calculation was made using the following formula, and the enhancing activity for cAMP production was represented by % of control: % of control=X/C×100;
# X: The cAMP level in the sample-adding group; and
# C: Control (no sample, without stimulus of forskoline).
# [2] = biological target: T2, membrane fraction of TGR23-2 expressing CHO cells (Homo sapiens, UniProt Q6W5P4, N107I/Q344R); assay: GTPγS binding activity in membrane fraction; format: biochemical
# T2 construct: the clones having the cDNA of TGR23-2, which is contained in pTB2174, were selected; expressed in transfected cells; host or cells: hamster CHO/dhfr- cells, vector pAKKO-111H (pAKKO-TGR23-2)
# T2 sequence (Q6W5P4 1-371 N107I/Q344R): T1 sequence (Q6W5P4 1-371 N107I/Q344R)
# Protocol: Enhancing activity of binding of [^35S]-Guanosine 5′-(γ-thio) triphosphate in the membrane fraction of TGR23-2 expressing CHO cells was measured by the following method. Firstly, it is described about preparation of membrane fraction. Twenty (20) ml of homogenation buffer (10 mM HEPES (pH7.3), 5 mM EDTA, 0.52 mM PMSF, 10 μg/ml pepstatin, 8 μg/ml E64, 20 μg/ml leupeptin) was added to 8×10^7 of TGR23-2 expressing CHO cells, and the cells were disrupted using Polytron (12,000 rpm, 30 seconds×3 times). The cell-disrupted fluids were centrifuged (1,000 g for 15 minutes) to get supernatant. Subsequently the supernatant was ultracentrifuged (Beckman type 30 rotor, 30,000 rpm, one hour), and the precipitate obtained was collected as a membrane fraction of TGR23-2 expressing CHO cells. The GTPγS binding activity was assayed as follows. The membrane fraction of TGR23-2 expressing CHO cells was diluted with membrane dilution buffer (50 mM Tris-HCl buffer (pH7.4), 5 mM MgCl2, 150 mM NaCl, 0.03% NaN3, 0.1% BSA, 1 μM GDP) to get cell membrane fraction solution for assay at the protein concentration of […]. Two (2) μl of 50 nM [^35S]-guanosine 5′-(γ-thio) triphosphate (NEN) and sample were added to 200 μl of cell membrane fraction solution for assay, and the mixture was incubated at 25° C. for one (1) hour. The mixture was filtered, and the filter was washed twice with 1.5 ml of washing buffer (50 mM Tris-HCl buffer (pH7.4), 5 mM MgCl2, 1 mM EDTA, 0.03% NaN3, 0.1% BSA). Then the radioactivity on the filter was measured by liquid scintillation counter. Human TGR23-2 ligand (1-20) prepared by the method described in Example 17, rat TGR23-2 ligand (1-18) prepared by the method described in Example 19 and mouse TGR23-2 ligand (1-20) prepared by the method described in Example 20 were administered to TGR23-2 expressing CHO cells at a variety of concentrations according to the method described above, and the GTPγS binding activity was determined.
# [3] = biological target: T1, TGR23-2 expressing CHO cells; assay: Intracellular Ca ion concentration increasing activity using FLIPR; format: cell-based; settings: variety of concentrations
# Protocol: (§1) An enhancing activity of intracellular Ca^2+ release was assayed using FLIPR (Molecular Devices, Inc.). The CHO/TGR23-2 cells prepared in Example 1 and selected in Example 2 were plated on 96-well plate at 3×10^4 cells/well and cultured for 24 hours. A loading buffer was prepared by adding 1 vial of Fluo 3-AM to 10 ml of Hanks' solution (pH7.4) containing 2.5 mM Probenecid and 20 mM HEPES (hereafter, Hanks' solution (pH7.4) containing 2.5 mM Probenecid and 20 mM HEPES may be referred to as a washing buffer). The culture medium was discarded from the culture plate and 100 μl/well of the loading buffer were added to the cells. Then, the cells were incubated for 60 minutes in the incubator. After the loading buffer was removed from the culture plate and the cells were washed with the washing buffer, the plate was put in place of FLIPR. A sample was prepared by adding a sample buffer, which 2 mg/ml BSA and 1 mg/ml CHAPS were added to the washing buffer, to lyophilized product, stirring and treating by ultrasonication for 30 minutes, and transferred to 96-well sample plate. This sample plate was also put in place for assay. The enhancing activity of intracellular Ca^2+ release was measured as an increase of fluorescent intensity, which is raised by addition of the sample. Human TGR23-2 ligand (1-20) obtained in Example 17 was administered to TGR23-1 expressing CHO cells and TGR23-2 expressing CHO cells at a variety of concentrations according to the method described in Example 5, and the increasing activity of intracellular Ca ion concentration was determined using FLIPR. […] Rat TGR23-2 ligand (1-18) prepared by the method described in Example 19 and mouse TGR23-2 ligand (1-20) prepared by the method described in Example 20 were administered to TGR23-1 expressing CHO cells and TGR23-2 expressing CHO cells at a variety of concentrations according to the method described in Example 5, and the increasing activity of intracellular Ca ion concentration was determined using FLIPR.
# [4] = biological target: T3, TGR23-1 expressing CHO cells (Homo sapiens, UniProt Q6W5P4); assay: as above; format: cell-based; settings: variety of concentrations
# T3 construct: the clones having the cDNA of TGR23-1, which is contained in pTB2173, were selected; expressed in transfected cells; host or cells: hamster CHO/dhfr- cells, vector pAKKO-111H (pAKKO-TGR23-1), clones No. 49 and No. 52
# T3 sequence (Q6W5P4 1-371): T1 sequence (Q6W5P4 1-371 N107I/Q344R) with I107N, R344Q
# Protocol: as §1
Sequence,enhancing activity of intracellular cAMP production [1],GTPγS binding activity [2],increase of intracellular Ca ion concentration [3],increase of intracellular Ca ion concentration [4]
SFRNGVGSGVKKTS (Rat) [rat TGR23-2 ligand (1-14)],specifically exhibits an enhancing activity for cAMP production,–,–,–
SFRNGVGSGVKKTSF (Rat) [rat TGR23-2 ligand (1-15)],specifically exhibits an enhancing activity for cAMP production,–,–,–
SFRNGVGSGAKKTSFRRAKQ [mouse TGR23-2 ligand (1-20)],–,enhance the GTPγS binding activity,clearly enhance an increase of intracellular Ca ion concentration,clearly enhance an increase of intracellular Ca ion concentration
